Test results: patent publication US9549558B2, “Herbicidal azines” (BASF SE, priority 2012, dated 2017)

Experiments:
Format in all cases: in vivo
[1] = tested on: AMARE (Amaranthus retroflexus); assay: greenhouse pre-emergence herbicidal test
Source text: (§1) The seeds of the test plants were sown separately for each species. For the pre-emergence treatment, the active ingredients, which had been suspended or emulsified in water, were applied directly after sowing by means of finely distributing nozzles. The containers were irrigated gently to promote germination and growth and subsequently covered with transparent plastic hoods until the plants had rooted. This cover caused uniform germination of the test plants, unless this had been impaired by the active ingredients. Depending on the species, the plants were kept at 10-25° C. or 20-35° C., respectively. The test period extended over 2 to 4 weeks. During this time, the plants were tended, and their response to the individual treatments was evaluated. […] A moderate herbicidal activity is given at values of at least 60, a good herbicidal activity is given at values of at least 70, and a very good herbicidal activity is given at values of at least 85. The plants used in the greenhouse experiments were of the following species: [table]

[2] = tested on: AMARE (Amaranthus retroflexus); assay: greenhouse post-emergence herbicidal test; settings: 0.031 kg/ha
Source text: (§2) The culture containers used were plastic flowerpots containing loamy sand with approximately 3.0% of humus as the substrate. The seeds of the test plants were sown separately for each species.
For the post-emergence treatment, the test plants were first grown to a height of 3 to 15 cm, depending on the plant habit, and only then treated with the active ingredients which had been suspended or emulsified in water. For this purpose, the test plants were either sown directly and grown in the same containers, or they were first grown separately as seedlings and transplanted into the test containers a few days prior to treatment.
(§3) Depending on the species, the plants were kept at 10-25° C. or 20-35° C., respectively.
(§4) The test period extended over 2 to 4 weeks. During this time, the plants were tended, and their response to the individual treatments was evaluated.
(§5) Evaluation was carried out using a scale from 0 to 100. 100 means no emergence of the plants, or complete destruction of at least the aerial moieties, and 0 means no damage, or normal course of growth. A moderate herbicidal activity is given at values of at least 60, a good herbicidal activity is given at values of at least 70, and a very good herbicidal activity is given at values of at least 85.
(§6) The plants used in the greenhouse experiments were of the following species: […]

[3] = tested on: CAPBP (Capsella bursa-pastoris); assay: greenhouse pre-emergence herbicidal test; settings: CAPBP
Source text: as §2
(§7) For the pre-emergence treatment, the active ingredients, which had been suspended or emulsified in water, were applied directly after sowing by means of finely distributing nozzles. The containers were irrigated gently to promote germination and growth and subsequently covered with transparent plastic hoods until the plants had rooted. This cover caused uniform germination of the test plants, unless this had been impaired by the active ingredients.
as §3, §4, §5, §6

[4] = tested on: STEME (Stellaria media); assay: greenhouse pre-emergence herbicidal test
Source text: as §2, §7, §3, §4, §5, §6

[5] = tested on: ABUTH (Abutilon theophrasti); assay: greenhouse pre-emergence herbicidal test
Source text: as §1

[6] = tested on: ECHCG (Echinocloa crus-galli); assay: greenhouse pre-emergence herbicidal test
Source text: as §2, §7, §3, §4, §5, §6

## CC(C#N)c1nc(N)nc(Nc2c(F)c(F)c(F)c(F)c2F)n1 (centres unmarked) [Example 5]
[1]; 0.125 kg/ha
  herbicidal activity: very good (a very good herbicidal activity is given at values of at least 85)

## CC(C)(F)c1nc(N)nc(Nc2c(F)cccc2Br)n1 [Example 31]
[2]
  herbicidal activity: very good (a very good herbicidal activity is given at values of at least 85)

## CC(C)(F)c1nc(N)nc(Nc2c(Br)cc(F)c(F)c2F)n1 [Example 34]
[3]; 0.125 kg/ha
  herbicidal activity: very good (a very good herbicidal activity is given at values of at least 85)
[4]; 0.125 kg/ha
  herbicidal activity: very good (a very good herbicidal activity is given at values of at least 85)

## Cc1cccc(F)c1Nc1nc(N)nc(C(C)(C)F)n1 [Example 41]
[1]; 0.031 kg/ha
  herbicidal activity: good (a good herbicidal activity is given at values of at least 70)

## COc1cccc(F)c1Nc1nc(N)nc(C(C)(C)F)n1 [Example 42]
[1]; 0.0625 kg/ha
  herbicidal activity: very good (a very good herbicidal activity is given at values of at least 85)

## COc1ccc(F)c(Nc2nc(N)nc(C(C)(C)F)n2)c1F [Example 43]
[2]
  herbicidal activity: good (a good herbicidal activity is given at values of at least 70)

## CCOc1ccc(F)c(Nc2nc(N)nc(C(C)(C)F)n2)c1F [Example 44]
[1]; 0.125 kg/ha
  herbicidal activity: very good (a very good herbicidal activity is given at values of at least 85)
[5]; 0.125 kg/ha
  herbicidal activity: very good (a very good herbicidal activity is given at values of at least 85)

## COc1cccc(OC)c1Nc1nc(N)nc(C(C)(C)F)n1 [Example 47]
[1]; 0.125 kg/ha
  herbicidal activity: very good (a very good herbicidal activity is given at values of at least 85)

## CCCC(F)(CC)c1nc(N)nc(Nc2c(F)c(F)c(F)c(F)c2F)n1 (centres unmarked) [Example 50]
[3]; 0.125 kg/ha
  herbicidal activity: very good (a very good herbicidal activity is given at values of at least 85)
[4]; 0.125 kg/ha
  herbicidal activity: very good (a very good herbicidal activity is given at values of at least 85)

## CC(C)(C#N)c1nc(N)nc(Nc2c(F)c(F)c(F)c(F)c2F)n1 [Example 64]
[4]; 125 g/ha
  herbicidal activity: very good (a very good herbicidal activity is given at values of at least 85)
[1]; 125 g/ha
  herbicidal activity: very good (a very good herbicidal activity is given at values of at least 85)
[5]; 125 g/ha
  herbicidal activity: very good (a very good herbicidal activity is given at values of at least 85)

## CC(C)c1nc(N)nc(Nc2c(F)cccc2F)n1 [Example 66]
[1]; 62.5 g/ha
  herbicidal activity: very good (a very good herbicidal activity is given at values of at least 85)

## CC(C)c1nc(N)nc(Nc2c(F)ccc(Cl)c2F)n1 [Example 67]
[1]; 125 g/ha
  herbicidal activity: very good (a very good herbicidal activity is given at values of at least 85)
[5]; 125 g/ha
  herbicidal activity: good (a good herbicidal activity is given at values of at least 70)

## Nc1nc(Nc2c(F)c(F)c(F)c(F)c2F)nc(C(F)(F)C(F)(F)F)n1 [Example 68]
[3]; 125 g/ha
  herbicidal activity: very good (a very good herbicidal activity is given at values of at least 85)
[4]; 125 g/ha
  herbicidal activity: very good (a very good herbicidal activity is given at values of at least 85)
[1]; 125 g/ha
  herbicidal activity: very good (a very good herbicidal activity is given at values of at least 85)

## Nc1nc(CC(F)(F)F)nc(Nc2c(F)c(F)c(F)c(F)c2F)n1 [Example 72]
[1]; 125 g/ha
  herbicidal activity: very good (a very good herbicidal activity is given at values of at least 85)
[5]; 125 g/ha
  herbicidal activity: very good (a very good herbicidal activity is given at values of at least 85)

## Nc1nc(Nc2c(F)c(F)c(F)c(F)c2F)nc(C(F)F)n1 [Example 121]
[1]; 250 g/ha
  herbicidal activity: very good (a very good herbicidal activity is given at values of at least 85)
[5]; 250 g/ha
  herbicidal activity: very good (a very good herbicidal activity is given at values of at least 85)

## Nc1nc(Nc2c(F)ccc(F)c2F)nc(C(F)F)n1 [Example 123]
[6]; 250 g/ha
  herbicidal activity: good (a good herbicidal activity is given at values of at least 70)
[1]; 250 g/ha
  herbicidal activity: very good (a very good herbicidal activity is given at values of at least 85)
[5]; 250 g/ha
  herbicidal activity: good (a good herbicidal activity is given at values of at least 70)

## CC=C(C)c1nc(N)nc(Nc2c(F)cccc2F)n1 [Example 124]
[6]; 1000 g/ha
  herbicidal activity: very good (a very good herbicidal activity is given at values of at least 85)
[1]; 1000 g/ha
  herbicidal activity: very good (a very good herbicidal activity is given at values of at least 85)
[5]; 1000 g/ha
  herbicidal activity: very good (a very good herbicidal activity is given at values of at least 85)

## CC(C)(C)c1nc(N)nc(Nc2c(F)cccc2C#N)n1 [Example 135]
[6]; 500 g/ha
  herbicidal activity: very good (a very good herbicidal activity is given at values of at least 85)
[1]; 500 g/ha
  herbicidal activity: very good (a very good herbicidal activity is given at values of at least 85)
[5]; 500 g/ha
  herbicidal activity: very good (a very good herbicidal activity is given at values of at least 85)

## N#Cc1cccc(F)c1Nc1nc(N)nc(C(F)F)n1 [Example 149]
[4]; 250 g/ha
  herbicidal activity: good (a good herbicidal activity is given at values of at least 70)

## CC(F)c1nc(N)nc(Nc2c(F)c(F)c(Br)c(F)c2F)n1 (centres unmarked) [Example 180]
[1]; 250 g/ha
  herbicidal activity: very good (a very good herbicidal activity is given at values of at least 85)
[5]; 250 g/ha
  herbicidal activity: very good (a very good herbicidal activity is given at values of at least 85)

## CC(C)(F)c1nc(N)nc(Nc2c(F)ccc([N+](=O)[O-])c2F)n1 [Example 189]
[6]; 507 g/ha
  herbicidal activity: very good (a very good herbicidal activity is given at values of at least 85)
[1]; 507 g/ha
  herbicidal activity: very good (a very good herbicidal activity is given at values of at least 85)
[5]; 507 g/ha
  herbicidal activity: very good (a very good herbicidal activity is given at values of at least 85)

## Cc1cc(C)cc(Oc2cccc(F)c2Nc2nc(N)nc(C(C)(C)F)n2)c1 [Example 191]
[6]; 1000 g/ha
  herbicidal activity: very good (a very good herbicidal activity is given at values of at least 85)
[1]; 1000 g/ha
  herbicidal activity: very good (a very good herbicidal activity is given at values of at least 85)
[5]; 1000 g/ha
  herbicidal activity: very good (a very good herbicidal activity is given at values of at least 85)

## CCC(C)c1nc(N)nc(Nc2c(F)c(F)cc(F)c2F)n1 (centres unmarked) [Example 193]
[6]; 500 g/ha
  herbicidal activity: very good (a very good herbicidal activity is given at values of at least 85)
[1]; 500 g/ha
  herbicidal activity: very good (a very good herbicidal activity is given at values of at least 85)
[5]; 500 g/ha
  herbicidal activity: very good (a very good herbicidal activity is given at values of at least 85)

## CCC(C)(Cl)c1nc(N)nc(Nc2c(F)c(F)c(Br)c(F)c2F)n1 (centres unmarked) [Example 195]
[6]; 500 g/ha
  herbicidal activity: good (a good herbicidal activity is given at values of at least 70)
[1]; 500 g/ha
  herbicidal activity: very good (a very good herbicidal activity is given at values of at least 85)
[5]; 500 g/ha
  herbicidal activity: good (a good herbicidal activity is given at values of at least 70)

## Nc1nc(CF)nc(Nc2c(F)c(F)cc(F)c2F)n1 [Example 198]
[1]; 119 g/ha
  herbicidal activity: very good (a very good herbicidal activity is given at values of at least 85)

## CC=C(C)c1nc(N)nc(Nc2c(F)c(F)cc(F)c2F)n1 [Example 206]
[1]; 500 g/ha
  herbicidal activity: very good (a very good herbicidal activity is given at values of at least 85)

## CCC(C#N)(CC)c1nc(N)nc(Nc2c(F)c(F)cc(F)c2F)n1 [Example 219]
[1]; 250 g/ha
  herbicidal activity: very good (a very good herbicidal activity is given at values of at least 85)
[5]; 250 g/ha
  herbicidal activity: very good (a very good herbicidal activity is given at values of at least 85)

## COC(C)c1nc(N)nc(Nc2c(F)ccc(F)c2F)n1 (centres unmarked) [Example 228]
[1]; 500 g/ha
  herbicidal activity: very good (a very good herbicidal activity is given at values of at least 85)
[5]; 500 g/ha
  herbicidal activity: very good (a very good herbicidal activity is given at values of at least 85)

## Nc1nc(C2CCCC2)nc(N(C(=O)C2CCCC2)c2c(F)ccc(F)c2F)n1 [Example 302]
[6]; 1000 g/ha
  herbicidal activity: very good (a very good herbicidal activity is given at values of at least 85)
[1]; 1000 g/ha
  herbicidal activity: very good (a very good herbicidal activity is given at values of at least 85)
[5]; 1000 g/ha
  herbicidal activity: good (a good herbicidal activity is given at values of at least 70)

## CCN(c1nc(N)nc(C(C)(C)F)n1)c1c(F)c(F)c(F)c(F)c1F [Example 308]
[1]; 125 g/ha
  herbicidal activity: very good (a very good herbicidal activity is given at values of at least 85)
